Source: patent US10208066B2, “Imidazopyridazine compounds and their use” (HUTCHISON MEDIPHARMA LIMITED, priority 2014, dated 2019)
Like-named read-outs stand apart in the source and are kept apart here.

Experiments:
Assay in all cases: Transcreener KINASE Assay, fluorescent determination of PI3K enzyme activity;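 for PI3K-β IH % (inhibition rate): recombinant PI3K enzyme reaction, 80 min at room temperature, ADP formed detected by far-red competitive fluorescence polarization immunoassay, inhibition relative to ADP in 2% DMSO control wells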;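 for PI3K-γ IH % (inhibition rate): ADP produced by p110γ kinase reaction, 80 min at room temperature, detected by far-red fluorescence polarization immunoassay, inhibition relative to 2% DMSO control wells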;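 for PI3K-δ IH % (inhibition rate): ADP formed by the kinase detected via far-red competitive fluorescence polarization immunoassay after 80 min room-temperature reaction, inhibition relative to 2% DMSO wells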
Type in all cases: biochemical
PI3K-γ (p110γ) = PI3K-γ (p110γ) (Homo sapiens (Human), UniProt P48736); conditions: for inhibition at 1 µM: read-out: PI3K-γ IH % (inhibition rate);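 for all read-outs here: ADP produced by p110γ kinase reaction, 80 min at room temperature, detected by far-red fluorescence polarization immunoassay, inhibition relative to 2% DMSO control wells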
Chain of PI3K-γ (p110γ) (P48736 whole entry, species assumed): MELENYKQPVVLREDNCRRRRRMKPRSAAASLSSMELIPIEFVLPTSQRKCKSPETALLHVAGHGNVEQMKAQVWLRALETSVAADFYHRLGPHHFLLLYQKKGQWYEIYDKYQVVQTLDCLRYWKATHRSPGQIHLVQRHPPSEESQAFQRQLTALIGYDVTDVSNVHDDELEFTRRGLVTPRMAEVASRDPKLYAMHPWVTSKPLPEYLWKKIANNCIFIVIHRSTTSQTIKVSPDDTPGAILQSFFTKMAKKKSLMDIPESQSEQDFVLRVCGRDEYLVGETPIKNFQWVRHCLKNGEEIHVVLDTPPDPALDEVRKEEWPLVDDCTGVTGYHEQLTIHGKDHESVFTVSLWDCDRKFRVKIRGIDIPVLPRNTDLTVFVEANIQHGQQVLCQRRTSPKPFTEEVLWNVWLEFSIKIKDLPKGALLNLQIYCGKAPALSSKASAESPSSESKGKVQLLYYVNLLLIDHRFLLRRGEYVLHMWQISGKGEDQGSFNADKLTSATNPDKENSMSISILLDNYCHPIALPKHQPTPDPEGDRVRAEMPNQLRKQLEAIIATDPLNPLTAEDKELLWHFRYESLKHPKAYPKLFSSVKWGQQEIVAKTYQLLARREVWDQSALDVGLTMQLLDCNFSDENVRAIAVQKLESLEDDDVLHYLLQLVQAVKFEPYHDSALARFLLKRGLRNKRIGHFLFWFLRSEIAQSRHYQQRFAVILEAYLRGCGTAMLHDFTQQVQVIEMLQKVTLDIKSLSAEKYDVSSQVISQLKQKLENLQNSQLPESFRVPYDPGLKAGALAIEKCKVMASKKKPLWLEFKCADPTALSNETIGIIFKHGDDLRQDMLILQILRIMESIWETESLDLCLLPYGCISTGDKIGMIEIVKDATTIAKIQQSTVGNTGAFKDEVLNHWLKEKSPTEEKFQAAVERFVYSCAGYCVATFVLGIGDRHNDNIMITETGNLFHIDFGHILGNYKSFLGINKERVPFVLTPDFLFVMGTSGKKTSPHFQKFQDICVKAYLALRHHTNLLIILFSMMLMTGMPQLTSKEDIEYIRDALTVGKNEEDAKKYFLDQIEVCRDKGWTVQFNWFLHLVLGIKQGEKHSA
Method: (§1) It is a universal, homogenous, high throughput screening (HTS) technology using a far-red, competitive fluorescence polarization immunoassay based on the detection of ADP to monitor the activity of enzymes that catalyze group transfer reactions. […] The reaction mixture was added into desired wells of a 96-well plate. The plate was sealed and incubated for 80 min at room temperature. • 2) Next, 25 uL ADP detection mix was added into each well. The plate was sealed again and incubated for 60 min at room temperature. Then fluorescence polarization was measured by Tecan Infinite F500 Reader.
(§2) Data was analyzed and IC50 values were generated using the add-in software for Microsoft Excel, Xlfit™ (version 5.3).
(§3) Inhibition rates were calculated as follow: IH %=(ADP amount under 2% DMSO well−ADP amount under test compound well)/ADP amount under 2% DMSO well×100%.

PI3K-β = PI3K-β (Homo sapiens, UniProt P42338); conditions: for inhibition at 1 µM: read-out: PI3K-β IH % (inhibition rate); for inhibition at 1 µM / PI3K-β IH % (inhibition rate): at 1 μM;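 for all read-outs here: recombinant PI3K enzyme reaction, 80 min at room temperature, ADP formed detected by far-red competitive fluorescence polarization immunoassay, inhibition relative to ADP in 2% DMSO control wells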
Chain of PI3K-β (P42338 whole entry, looked up): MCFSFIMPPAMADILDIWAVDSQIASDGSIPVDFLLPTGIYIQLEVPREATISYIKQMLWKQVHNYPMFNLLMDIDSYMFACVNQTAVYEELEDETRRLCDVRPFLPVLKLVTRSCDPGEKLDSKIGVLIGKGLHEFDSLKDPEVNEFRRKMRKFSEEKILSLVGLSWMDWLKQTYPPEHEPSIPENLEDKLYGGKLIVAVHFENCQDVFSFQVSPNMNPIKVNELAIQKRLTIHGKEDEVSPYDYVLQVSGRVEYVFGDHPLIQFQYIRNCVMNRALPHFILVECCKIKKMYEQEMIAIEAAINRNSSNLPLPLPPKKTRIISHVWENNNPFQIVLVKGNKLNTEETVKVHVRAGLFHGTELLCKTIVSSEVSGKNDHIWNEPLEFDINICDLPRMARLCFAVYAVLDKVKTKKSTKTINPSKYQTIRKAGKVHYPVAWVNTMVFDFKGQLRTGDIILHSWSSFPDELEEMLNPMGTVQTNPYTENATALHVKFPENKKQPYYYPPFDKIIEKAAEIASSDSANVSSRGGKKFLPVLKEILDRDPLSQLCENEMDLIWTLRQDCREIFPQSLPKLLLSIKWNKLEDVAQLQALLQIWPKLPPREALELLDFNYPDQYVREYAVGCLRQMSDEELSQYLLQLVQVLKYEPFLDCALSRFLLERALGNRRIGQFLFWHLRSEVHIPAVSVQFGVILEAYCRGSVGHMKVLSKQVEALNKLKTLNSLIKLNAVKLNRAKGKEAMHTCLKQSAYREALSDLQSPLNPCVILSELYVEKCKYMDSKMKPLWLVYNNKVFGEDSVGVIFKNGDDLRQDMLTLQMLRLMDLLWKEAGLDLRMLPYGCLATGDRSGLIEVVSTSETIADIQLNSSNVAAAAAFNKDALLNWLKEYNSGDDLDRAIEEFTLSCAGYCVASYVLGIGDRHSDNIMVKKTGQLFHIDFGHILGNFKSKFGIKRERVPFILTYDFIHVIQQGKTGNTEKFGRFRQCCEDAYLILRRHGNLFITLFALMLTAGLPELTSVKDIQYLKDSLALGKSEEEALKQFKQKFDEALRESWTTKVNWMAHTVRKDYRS

PI3K-δ (p110δ/p85α) = PI3K-δ (p110δ/p85α) (Homo sapiens (Human), UniProt O00329); conditions: for inhibition at 1 µM: read-out: PI3K-δ IH % (inhibition rate);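 for all read-outs here: ADP formed by the kinase detected via far-red competitive fluorescence polarization immunoassay after 80 min room-temperature reaction, inhibition relative to 2% DMSO wells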
Chain of PI3K-δ (p110δ/p85α) (O00329 whole entry, species assumed): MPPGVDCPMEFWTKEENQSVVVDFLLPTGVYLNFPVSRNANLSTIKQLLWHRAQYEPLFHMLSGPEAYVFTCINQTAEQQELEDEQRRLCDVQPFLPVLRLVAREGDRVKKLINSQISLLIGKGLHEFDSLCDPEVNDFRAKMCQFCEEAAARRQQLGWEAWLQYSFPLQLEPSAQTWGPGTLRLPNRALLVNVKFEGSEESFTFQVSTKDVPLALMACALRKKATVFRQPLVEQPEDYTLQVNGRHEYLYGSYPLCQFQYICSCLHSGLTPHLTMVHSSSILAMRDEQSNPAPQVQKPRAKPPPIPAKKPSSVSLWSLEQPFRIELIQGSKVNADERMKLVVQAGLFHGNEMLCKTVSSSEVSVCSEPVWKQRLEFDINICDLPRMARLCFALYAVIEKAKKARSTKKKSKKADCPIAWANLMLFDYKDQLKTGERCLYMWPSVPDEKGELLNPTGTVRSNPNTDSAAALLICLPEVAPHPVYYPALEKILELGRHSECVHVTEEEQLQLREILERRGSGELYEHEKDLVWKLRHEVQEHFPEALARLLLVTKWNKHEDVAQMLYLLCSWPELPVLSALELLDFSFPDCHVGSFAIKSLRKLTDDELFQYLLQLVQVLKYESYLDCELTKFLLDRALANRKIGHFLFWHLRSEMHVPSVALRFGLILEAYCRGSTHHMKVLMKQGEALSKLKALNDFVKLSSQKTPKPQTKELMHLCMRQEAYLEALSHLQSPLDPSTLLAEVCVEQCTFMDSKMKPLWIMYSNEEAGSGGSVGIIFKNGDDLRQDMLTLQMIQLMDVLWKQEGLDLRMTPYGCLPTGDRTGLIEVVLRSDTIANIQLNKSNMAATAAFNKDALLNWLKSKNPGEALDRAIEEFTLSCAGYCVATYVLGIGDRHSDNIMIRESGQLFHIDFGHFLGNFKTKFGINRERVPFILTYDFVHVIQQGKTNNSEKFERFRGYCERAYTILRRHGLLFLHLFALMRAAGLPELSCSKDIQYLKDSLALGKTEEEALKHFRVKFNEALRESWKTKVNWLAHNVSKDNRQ
Chain of PI3K-δ (p110δ/p85α) (P27986 whole entry partner, species assumed): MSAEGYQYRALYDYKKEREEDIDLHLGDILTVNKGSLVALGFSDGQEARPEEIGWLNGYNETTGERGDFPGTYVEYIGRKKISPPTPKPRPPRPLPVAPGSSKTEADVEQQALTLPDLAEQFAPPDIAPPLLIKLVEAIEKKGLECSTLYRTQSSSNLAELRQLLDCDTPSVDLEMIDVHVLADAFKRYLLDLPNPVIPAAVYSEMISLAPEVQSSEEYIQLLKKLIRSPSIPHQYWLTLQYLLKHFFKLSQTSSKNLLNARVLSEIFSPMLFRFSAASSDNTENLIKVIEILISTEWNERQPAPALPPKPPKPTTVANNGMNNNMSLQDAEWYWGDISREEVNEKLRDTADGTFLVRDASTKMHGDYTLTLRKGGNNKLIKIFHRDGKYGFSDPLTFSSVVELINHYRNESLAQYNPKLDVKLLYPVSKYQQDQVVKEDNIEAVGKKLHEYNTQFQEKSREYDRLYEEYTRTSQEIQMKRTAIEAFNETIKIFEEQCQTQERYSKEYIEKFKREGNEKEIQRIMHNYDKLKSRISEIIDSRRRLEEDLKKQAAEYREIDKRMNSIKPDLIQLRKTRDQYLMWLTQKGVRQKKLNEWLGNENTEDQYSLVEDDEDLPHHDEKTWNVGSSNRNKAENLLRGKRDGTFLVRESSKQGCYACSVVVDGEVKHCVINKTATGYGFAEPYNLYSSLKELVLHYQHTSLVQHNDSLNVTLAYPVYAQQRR
Method: as §1, §2, §3

| Compound | IC50 (PI3K-δ (p110δ/p85α)) | inhibition at 1 µM (PI3K-β) | inhibition at 1 µM (PI3K-γ (p110γ); at 1 μM) | also measured |
| --- | --- | --- | --- | --- |
| CC(Nc1ncnc2[nH]cc(C#N)c12)c1cc2ncc(Cl)n2nc1-c1ccccc1 (single isomer, unassigned) [Compound 9] | 0.002 µM | – | – | IC50 (PI3K-γ (p110γ)): 0.046 µM; IC50 (PI3K-β): 0.158 µM |
| CC(Nc1ncnc2[nH]cnc12)c1cc2ncc(Cl)n2nc1-c1ccccc1 (single isomer, unassigned) [Compound 11] | 0.003 µM | 55.7% | – | IC50 (PI3K-γ (p110γ)): 0.094 µM |
| CCC(Nc1ncnc2[nH]cnc12)c1cc2ncc(Cl)n2nc1-c1ccccc1F (single isomer, unassigned) [Compound 26] | – | – | 8% | PI3K-β IH % (inhibition rate) (PI3K-β): −7.5% |
| C[C@H](Nc1ncnc(N)c1C#N)c1cc2ncc(Cl)n2nc1-c1cccc(C(C)(C)O)c1 (single isomer, unassigned) [Compound 79, (chiral)-4-amino-6-((1-(3-chloro-6-(3-(2-hydroxypropan-2-yl)phenyl)imidazo[1,2-b]pyridazin-7-yl)ethyl)amino)pyrimidine-5-carbonitrile] | – | – | – | PI3K-γ IH % (inhibition rate) (PI3K-γ (p110γ); at 1 μM): 56.2%; PI3K-β IH % (inhibition rate) (PI3K-β): 43.8% |
| CC(Nc1ncnc(N)c1C#N)c1cc2nccn2nc1-c1ccccc1 (stereo not drawn) [Compound 1, 4-amino-6-((1-(6-phenylimidazo[1,2-b]pyridazin-7-yl)ethyl)amino)pyrimidine-5-carbonitrile] | 0.028 µM | 28.1% | – | inhibition at 1 µM (PI3K-γ (p110γ)): 16.1% |
| C[C@@H](Nc1ncnc(N)c1C#N)c1cc2ncc(Cl)n2nc1-c1ccccc1 [Compound 3, (R)-4-amino-6-((1-(3-chloro-6-phenylimidazo[1,2-b]pyridazin-7-yl)ethyl)amino)pyrimidine-5-carbonitrile] | – | – | 6.9% | – |
| CC[C@@H](Nc1ncnc(N)c1C#N)c1cc2ncc(Cl)n2nc1-c1ccccc1 [Compound 5, (R)-4-amino-6-((1-(3-chloro-6-phenylimidazo[1,2-b]pyridazin-7-yl)propyl)amino)pyrimidine-5-carbonitrile] | – | -10.7% | 4.1% | inhibition at 1 µM (PI3K-δ (p110δ/p85α)): 47.3% |
| C[C@@H](Nc1ncnc(N)c1C#N)c1cc2ncc(Cl)n2nc1-c1ccccn1 [Compound 7, (R)-4-amino-6-((1-(3-chloro-6-(pyridin-2-yl)imidazo[1,2-b]pyridazin-7-yl)ethyl)amino)pyrimidine-5-carbonitrile] | – | -2.7% | -2.3% | inhibition at 1 µM (PI3K-δ (p110δ/p85α)): 12.5% |
| C[C@H](Nc1ncnc(N)c1C#N)c1cc2ncc(Cl)n2nc1-c1ccccc1F [Compound 12] | 0.002 µM | – | – | IC50 (PI3K-γ (p110γ)): 0.55 µM; IC50 (PI3K-β): 0.08 µM |
| CCC(Nc1ncnc2[nH]cnc12)c1cc2ncc(Cl)n2nc1-c1ccccc1 (stereo not drawn) [Compound 14] | – | – | 22.5% | PI3K-β IH % (inhibition rate) (PI3K-β): 3.2%; inhibition at 1 µM (PI3K-δ (p110δ/p85α)): 51% |
| CCC(Nc1ncnc(N)c1C#N)c1cc2ncc(Cl)n2nc1-c1ccccn1 (stereo not drawn) [Compound 28] | – | 11.1% | 18.8% | inhibition at 1 µM (PI3K-δ (p110δ/p85α)): 39.8% |
| CNc1ncnc(N[C@@H](C)c2cc3ncc(Cl)n3nc2-c2ccccc2)c1C#N [Compound 33, (S)-4-((1-(3-chloro-6-phenylimidazo[1,2-b]pyridazin-7-yl)ethyl)amino)-6-(methylamino)pyrimidine-5-carbonitrile] | 0.288 µM | 2.2% | -6.9% | – |
| C[C@H](Nc1nc(N)ncc1C#N)c1cc2ncc(Cl)n2nc1-c1ccccc1 [Compound 34] | – | 3.7% | -19.3% | inhibition at 1 µM (PI3K-δ (p110δ/p85α)): 8.3% |
| C[C@H](Nc1ncnc(N)c1-c1cccc(F)c1)c1cc2ncc(Cl)n2nc1-c1ccccc1 [Compound 37, (S)—N^4-(1-(3-chloro-6-phenylimidazo[1,2-b]pyridazin-7-yl)ethyl)-5-(3-fluorophenyl)pyrimidine-4,6-diamine] | 0.288 µM | -0.4% | 27.5% | – |
| C[C@H](Nc1ncnc(N)c1-c1ccc(O)c(F)c1)c1cc2ncc(Cl)n2nc1-c1ccccc1 [Compound 38] | 0.066 µM | -2.2% | 54.3% | – |
| COc1ccc(-c2c(N)ncnc2N[C@@H](C)c2cc3ncc(Cl)n3nc2-c2ccccc2)cn1 [Compound 39] | 0.073 µM | -4.4% | 28.1% | – |
| C[C@@H](c1cc2ncc(Cl)n2nc1-c1ccccc1)N(C)c1ncnc(N)c1C#N [Compound 42, (S)-4-amino-6-((1-(3-chloro-6-phenylimidazo[1,2-b]pyridazin-7-yl)ethyl)(methyl)amino)pyrimidine-5-carbonitrile] | 0.339 µM | 7.4% | 18.2% | – |
| CC[C@@H](Nc1ncnc(N)c1C#N)c1cc2ncc(Cl)n2nc1-c1cccc(F)c1 [Compound 43, (R)-4-amino-6-((1-(3-chloro-6-(3-fluorophenyl)imidazo[1,2-b]pyridazin-7-yl)propyl)amino)pyrimidine-5-carbonitrile] | 0.132 µM | 23.6% | 27.2% | – |
| CC[C@@H](Nc1ncnc2[nH]cnc12)c1cc2ncc(Cl)n2nc1-c1cccc(F)c1 [Compound 44] | 0.283 µM | 18.8% | 36% | – |
| CC[C@H](Nc1ncnc2[nH]cnc12)c1cc2ncc(Cl)n2nc1-c1cccc(F)c1 [Compound 47] | 0.018 µM | 32.2% | 55.2% | – |
| C[C@H](Nc1ncnc(N)c1C#N)c1cc2ncc(Cl)n2nc1-c1ccc(O)cc1 [Compound 49] | 0.001 µM | – | – | IC50 (PI3K-γ (p110γ)): 0.146 µM; IC50 (PI3K-β): 0.001 µM |

| Compound | IC50 (PI3K-δ (p110δ/p85α)) | inhibition at 1 µM (PI3K-β) | inhibition at 1 µM (PI3K-γ (p110γ); at 1 μM) | also measured |
| --- | --- | --- | --- | --- |
| COc1cc(-c2c(N)ncnc2N[C@@H](C)c2cc3ncc(Cl)n3nc2-c2ccccc2)ccn1 [Compound 50] | – | -14.1% | 5.5% | inhibition at 1 µM (PI3K-δ (p110δ/p85α)): 68.9% |
| C[C@H](Nc1nc[n+]([O-])c(N)c1C#N)c1cc2ncc(Cl)n2nc1-c1ccccc1 [Compound 51, (S)-6-amino-4-((1-(3-chloro-6-phenylimidazo[1,2-b]pyridazin-7-yl)ethyl)amino)-5-cyanopyrimidine 1-oxide] | – | -15.5% | – | inhibition at 1 µM (PI3K-γ (p110γ)): 36.7% |
| C[C@H](Nc1ncnc(N)c1C(=O)O)c1cc2ncc(Cl)n2nc1-c1ccccc1 [Compound 52, (S)-4-amino-6-((1-(3-chloro-6-phenylimidazo[1,2-b]pyridazin-7-yl)ethyl)amino)pyrimidine-5-carboxylic acid] | 0.08 µM | -6.3% | – | inhibition at 1 µM (PI3K-γ (p110γ)): -26.1% |
| C[C@H](Nc1ncnc(N)c1C#N)c1cc2ncc(Cl)n2nc1-c1cccc(O)c1 [Compound 54] | 0.002 µM | – | – | IC50 (PI3K-γ (p110γ)): 0.226 µM; IC50 (PI3K-β): 0.009 µM |
| C[C@H](Nc1nc(O)nc(N)c1C#N)c1cc2ncc(Cl)n2nc1-c1ccccc1 [Compound 55, (S)-4-amino-6-((1-(3-chloro-6-phenylimidazo[1,2-b]pyridazin-7-yl)ethyl)amino)-2-hydroxypyrimidine-5-carbonitrile] | – | 8.5% | -4.7% | inhibition at 1 µM (PI3K-δ (p110δ/p85α)): 60.3% |
| C[C@H](Nc1ncnc(N)c1C(=O)N(C)C)c1cc2ncc(Cl)n2nc1-c1ccccc1 [Compound 56] | – | 9% | 1% | inhibition at 1 µM (PI3K-δ (p110δ/p85α)): 21% |
| C[C@H](Nc1ncnc(N)c1-c1cnn(C)c1)c1cc2ncc(Cl)n2nc1-c1ccccc1 [Compound 57] | 0.062 µM | 6.3% | 30.3% | – |
| Cc1cn2nc(-c3ccccc3)c([C@H](C)Nc3ncnc(N)c3C#N)cc2n1 [Compound 58] | 0.138 µM | 20.5% | 20.2% | – |
| C[C@H](Nc1ncnc(N)c1C#N)c1cc2ncc(Cl)n2nc1-c1ccsc1 [Compound 60] | 0.001 µM | – | – | IC50 (PI3K-γ (p110γ)): 0.048 µM; IC50 (PI3K-β): 0.034 µM |
| C[C@H](Nc1ncnc(N)c1C#N)c1cc2ncc(Cl)n2nc1-c1ccc(F)c(F)c1 [Compound 63] | 0.006 µM | 48.1% | – | IC50 (PI3K-γ (p110γ)): 0.105 µM |
| C[C@H](Nc1ncnc(N)c1C#N)c1cc2ncc(Cl)n2nc1-c1ccc(Cl)c(F)c1 [Compound 64] | 0.048 µM | 44.1% | – | IC50 (PI3K-γ (p110γ)): > 0.333 µM |
| C[C@H](Nc1ncnc(N)c1C#N)c1cc2ncc(Cl)n2nc1-c1ccccc1O [Compound 69, (S)-4-amino-6-((1-(3-chloro-6-(2-hydroxyphenyl)imidazo[1,2-b]pyridazin-7-yl)ethyl)amino)pyrimidine-5-carbonitrile] | 0.001 µM | – | – | – |
| C[C@H](Nc1ncnc(N)c1C#N)c1cc2ncc(Cl)n2nc1-c1ccc2c(c1)OCCO2 [Compound 70] | – | 37.4% | – | – |
| C[C@H](Nc1ncnc(N)c1C#N)c1cc2ncc(Cl)n2nc1-c1ccc2ccccc2c1 [Compound 71] | 0.129 µM | 35.2% | 32.6% | – |
| C[C@H](Nc1ncnc(N)c1C#N)c1cc2ncc(Cl)n2nc1-c1cnn(C)c1 [Compound 72] | 0.004 µM | – | – | IC50 (PI3K-γ (p110γ)): 0.513 µM; IC50 (PI3K-β): 0.089 µM |
| C[C@H](Nc1ncnc(N)c1C#N)c1cc2ncc(Cl)n2nc1-c1ccncc1 [Compound 73] | 0.082 µM | 60.8% | 62.8% | – |
| C[C@@H](Nc1ncnc(N)c1C#N)c1cc2ncc(Cl)n2nc1-c1ccc2scnc2c1 [Compound 75] | – | -7.1% | 31.7% | inhibition at 1 µM (PI3K-δ (p110δ/p85α)): 1% |
| C[C@H](Nc1ncnc(N)c1C#N)c1cc2ncc(Cl)n2nc1-c1ccc2ccn(C)c2c1 [Compound 76] | – | 54.9% | -14.3% | inhibition at 1 µM (PI3K-δ (p110δ/p85α)): 48.9% |
| C[C@H](Nc1ncnc(N)c1C#N)c1cc2ncc(F)n2nc1-c1ccccc1 [Compound 78] | – | 50.1% | – | – |
| Cc1nnc(-c2c(N)ncnc2N[C@@H](C)c2cc3ncc(Cl)n3nc2-c2ccccc2)o1 [Compound 81, (S)—N^4-(1-(3-chloro-6-phenylimidazo[1,2-b]pyridazin-7-yl)ethyl)-5-(5-methyl-1,3,4-oxadiazol-2-yl)pyrimidine-4,6-diamine] | 0.002 µM | – | – | IC50 (PI3K-γ (p110γ)): 0.098 µM |
